Source: US20210392882A1, “METHODS AND COMPOSITIONS FOR IMPROVED INSECT REPELLENCY” (Board of Trustees of Michigan State University, priority 2020, published 2021)

Test system: Ae. aegypti mosquitoes
Assay: Hand-in-cage spatial repellency assay
Type: in vivo, Aedes aegypti
Excerpt: The hand-in-cage assay employed was similar to the hand-in-glove assay described by Boyle et al. (bioRxiv, 060178 (2016)). The setup for the hand-in-cage assay includes a 30 cm×30 cm×30 cm mosquito cage (BioQuip, Rancho Dominguea, Calif.), with a mounted digital camera and a human hand in a modified glove with a screened window. The digital camera (e-con Systems Inc, San Jose, Calif., model: e-CAM51A) for video recording is mounted on the cage top and connected to a laptop computer. A nitrile rubber glove (Ansell Protective Products, Coshoton, Ohio, part number: 37-155) was cut on the back side of the glove to create a window (6 cm×5 cm) (FIG. 1A). A piece of magnetic frame (slightly larger than the dimension of the window) was glued onto the cut window which was used as a base for stacking more magnetic window frames (FIG. 1A; further explained below). One piece of test compound-treated polyester netting (Shason Textile Inc., part number: WS-B532-111, white; slightly larger than the dimension of the window) was placed on this fixed magnetic frame, which was ˜3.0 mm above the glove. The second piece of the netting was untreated and placed ˜6.0 mm above the treated net using a stack of four magnetic frames. The stacked magnetic frames were further secured with a binder clip. The stacking creates sufficient space between the treated net and the untreated net so that mosquitoes that land on the open window were not able to contact treated net, or to contact and pierce skin of a hand in the glove. The hand makes no contact with the treated net.
The assay was run in a room with humidity between around 50% and temperature between 27° C. to 30° C. Twenty-four hours before an assay, four to nine days-old females (about 40, mated, non-blood fed) were transferred into a mosquito cage. The cage was kept in an incubator where mosquitoes were provided only with water in a cotton ball placed on the top of the cage. Immediately before the assay, one researcher treated pieces of netting with 500 μl test compound dissolved in acetone in a glass Petri dish in an adjacent room. Acetone served a control. After letting acetone evaporate (˜7 min), the researcher assembled and put on a modified glove. In the meantime, a second researcher or a lab assistant transferred the prepared cage from the incubator to a bench in the assay room. Both personnel avoided use of any hand lotions and cosmetic products before an assay and wore white lab coats and gloves during the assay. The hand with the modified glove was introduced into the cage to initiate the assay. Mosquitoes landing on the test window was recorded by the digital camera for five minutes. The number of mosquitoes landing during the second to fifth minutes was counted and recorded. For each cage, solvent (acetone) control was tested first and then followed with a treatment. Data from any cage that gave a low landing number in a control trial were discarded. The time interval of assays between control and treatment was at least 1.5 hours, allowing the mosquitoes to fully recover and residual vapors from experiments to be ventilated out of the room. Percentage repellency was determined for each cage using the following equation:
Percentage repellency=[1−(cumulative number of mosquitoes landed on the window of treatment/cumulative number of mosquitoes landed on the window of solvent treatment)]×100).
The spatial repellency of pyrethrum was examined using a hand-in-cage assay (Ogoma et al. PLoS neglected tropical diseases 11, e0005455 (2017)). In this behavioral assay, mosquitoes were attracted to a human hand in a modified glove (FIG. 1A) with a screened window on the back of the glove. The mosquitoes landed on a piece of control mesh secured on the top of the window. Between the control mesh and the hand is another mesh treated with a test compound, with which mosquitoes cannot make direct contact (FIG. 1A).

CC1(C)C2CCC1(C)C(O)C2 (single isomer, unassigned; (-)) [(−)-borneol]
repellency, Orlando vs orco−/− (10^−2 dilution, FIG. 4I): Orco-mediated | effect of (E)-β-farnesene on repellency of the compound (EBF 4 ppm, P-I 1000 ppm, P-II 1000 ppm, (−)-borneol 100 ppm, ROCK, FIG. 4D): No enhancement
